“Also recorded” adds a separate entry of the source.
Experiments:
[1] = tested on: liver triglycerides (TG) in C57BL/6J mice; assay: Chronic treatment for reducing liver triglycerides in C57BL/6J mice; type: in vivo, mouse; details: male C57BL/6J mice; 20 mg per kilogram body weight in 0.5% methylcellulose, oral gavage once per day for 2 weeks; FIG. 1, vs vehicle
Method: Male C57BL/6J mice (Jackson Laboratory) at around 9 weeks of age were treated with vehicle (0.5% methylcellulose or PEG400) or Example 14 (30 mg per kilogram body weight, dosing solution prepared in PEG400) and Example 20 (20 mg per kilogram body weight, dosing solution prepared in 0.5% methylcellulose) by oral gavage at ˜9:00 am, once per day for 2 weeks. Concentrations of Example 14 and Example 20 were 15 mg/ml and 2 mg/ml, respectively. The dosing volumes of Example 14 and Example 20 were 2 ml per kilogram body weight and 10 ml per kilogram body weight, respectively. After 14-day treatment, animals were euthanized in CO2 at 2 hours post dose and liver was frozen and kept on dry ice. Liver TG was measured by extracting lipids with chloroform:methanol 2:1 (v/v) followed by quantitation with Infinity™ Triglycerides Reagent (Thermo Scientific).

[2] = molecular target: T1, human ACC2 (Homo sapiens, UniProt O00763); assay: Human ACC enzymatic activity assay (ACC2); type: biochemical; details: purified human ACC2; read-out: EA-CoA hACC 2 IC50
T1 construct: purchased BPS Bioscience
Method: (§1) Human ACC enzymatic activity assays were performed by using purified human ACC1 and ACC2 proteins (BPS Bioscience). ACC1 and ACC2 proteins were diluted in 24.5 μL reaction buffer (50 mM HEPES pH 7.5, 10 mM MgCl2, 2.0 mM DTT, 4.0 mM ATP, 15 mM ^13C-NaHCO3, 0.75 mg/mL BSA, 0.5 mM sodium citrate), and final concentrations of ACC1 and ACC2 were 0.4 μg/mL and 0.48 μg/mL. For each reaction, 0.5 μL of serial diluted compounds were prepared in DMSO in duplicate or triplicate and mixed with the above 24.5 μL reaction mixtures with ACC proteins at 37° C. for 10 min. Meanwhile, 25 μL of reaction buffer plus acetyl-CoA (final concentration: 5 μM) was prepared freshly and added to the above 25 μL mixture to initiate the reaction. After incubation at 37° C. for 1-2 hours, 100 μl ice-cold 10% TCA with malonyl-^13C3-CoA (final concentration: 40 nM, Sigma-Aldrich) was added to terminate the reaction. For LC-MS/MS analysis, 300 μL quenching buffer (acetonitrile:methanol=1:1, 20 μM carbutamide as internal standard) was added to each tube and mixed well. Samples were then centrifuged at 14,000 rpm for 10 min (Eppendorf) and supernatants were loaded onto LC-MS/MS for quantitation of […] (Gao et al., Journal of chromatography B, Analytical technologies in the biomedical and life sciences 853, 303-313 (2007)).
(§2) Shimadzu LC system was used for sample analysis consisting of system controller (Shimadzu CBM-20A), autosampler (Shimadzu SIL-20A), pump A and B (Shimadzu LC-20AD), column oven (Shimadzu CTO-20A), and analytical column (Phenomenex Gemini 5u C18 11A, 100×2 mm). LC was running at 200 μL/min in the binary gradient mode with mobile phase A (5 mM Ammonium Acetate and 5 mM DMBA in water (1,3-Dimethylbutylamine)) and B (methanol). The samples were analyzed on an AB Sciex QTrap4000 LC-MS/MS triple quadrupole mass spectrometer (Applied Biosystems). Malonyl-CoA and malonyl-13C-CoA were monitored in positive ion mode following MRM transitions at 854.2/347.1 and 855.1/246.1, respectively. The product and internal standard were coeluted to the mass spectrometer in 3 s with 50% H2O, 25% MeCN, 25% acetone, and 5 mM ammonium acetate. Ion chromatograms were integrated using the Analyst 1.5.2 software. Peak area ratios were compared against a standard curve and final cellular concentration of malonyl-CoA or production rate of malonyl-13C-CoA was calculated as pmoles/mg protein per minute.

[3] = molecular target: T2, human ACC1 (Homo sapiens, UniProt Q13085); assay: Human ACC enzymatic activity assay (ACC1); type: biochemical; details: purified human ACC1; read-out: EA-CoA hACC 1 IC50
T2 construct: purchased BPS Bioscience
Method: as §1, §2

[4] = in vivo; cited from earlier work
[5] = in vivo; cited from earlier work; remark: listed apart in the source
[6] = tested on: T3, Mouse ACC (ACC protein purified from liver); assay: Mouse ACC enzymatic activity assay; type: biochemical; details: read-out: EA-CoA mACC IC50
T3 construct: ACC protein was purified by taking advantage of the biotinylation in the carboxylase domain
Method: ACC protein was purified by taking advantage of the biotinylation in the carboxylase domain. Male C57BL/6J mice (Jackson Laboratory) at 8-12 weeks of age were euthanized by using CO2 inhalation method and liver was immediately frozen on dry ice. To 100 mg liver was added 1 mL ice-cold tissue lysis buffer (20 mM Tris-HCl pH 7.5, 150 mM NaCl, 1 mM Na2EDTA, 1 mM EGTA, 1% Triton, 2.5 mM sodium pyrophosphate, 1 mM 3-glycerophosphate, 1 mM Na3VO4, 1 μg/mL leupeptin, 1 tablet of protease inhibitor cocktail (Roche) per 10 mL lysis buffer) followed by homogenization on ice with Power Gen 125 homogenizer (Fisher Scientific). After 30 min incubation on ice, tissue lysate was passed through a 10 mL syringe with 18½ G needle for 10 times to shear DNA. The lysate was then subject to 17.5%-35% saturated ammonium sulfate precipitation by adding 880 mg ammonium sulfate powder (Sigma) to 10 mL liver lysate in 10 min with stirring on ice. Sample was centrifuged at 14,000 rpm (Eppendorf) at 4° C. for 10 min and supernatant was saved for further precipitation by adding 880 mg ammonium sulfate powder to 10 ml supernatant in 10 min with stirring on ice. Sample was centrifuged at 14,000 rpm at 4° C. for 10 min. Supernatant was discarded and pellet was dissolved in 10 mL sample buffer (100 mM Tris-HCl, pH 7.5, 1 mM EDTA, 0.1 mM DTT, 0.5 M NaCl, and 5% glycerol). The sample was then added with 1 mL of Strep Mag beads slurry (Genscript) and rotated at 4° C. for 1 hour. Supernatant was discarded and beads were washed with sample buffer for 3 times. Protein was then eluted by adding 10 mL of 2 mM biotin (Promega) prepared in sample buffer. The eluate was then dialyzed at 4° C. for 1 hour by using Slide-A-Lyzer™ Dialysis Cassettes 10K MWCO (Thermo Fisher Scientific) against 3 changes of 200 mL dialysis buffer (50 mM HEPES, pH 7.5, 0.1 mM DTT, 1.0 mM EDTA, and 10% glycerol). Total protein concentration was then quantitated by using BCA protein assay kit (Pierce).
For ACC enzymatic activity assay, 1 μL serial diluted compounds prepared in DMSO in duplicate were mixed with 8 μL dialyzed sample at 37° C. for 10 min. Ninety one L of reaction buffer (50 mM HEPES pH 7.5, 10 mM MgCl2, 2.0 mM DTT, 0.5 mM acetyl-CoA, 4.0 mM ATP, 15 mM ^13C-NaHCO3, 0.75 mg/mL BSA, 0.5 mM sodium citrate) was added to the tube and mixed thoroughly. After incubation at 37° C. for 1 hour, 300 μl ice-cold quenching buffer (acetonitrile:methanol=1:1, 20 μM carbutamide as internal standard) was added to each tube and mixed well to terminate the reaction. Samples were centrifuged at 14,000 rpm for 10 min (Eppendorf) and supernatant was loaded onto LC-MS/MS for quantitation of malonyl-^13C-CoA (Gao et al., Journal of chromatography B, Analytical technologies in the biomedical and life sciences 853, 303-313 (2007)).
as §2

[7] = tested on: 3T3-L1 adipocytes; assay: Lipogenesis of 3T3-L1 adipocytes; type: cell-based; details: Mus musculus, TG readout, read-out: LG-3T3 IC50
Method: 3T3-L1 fibroblast cells (Zen-Bio) were grown in 96-well culture microplate (Corning) with growth media to around 90-100% confluency. Culture media was changed to differentiation media (growth media supplemented with 3-Isobutyl-1-Methylxanthine 500 μM, Dexamethasone 1 μM, insulin 10 μg/mL, and rosiglitazone 2 μM) plus serially diluted compounds prepared in DMSO (1:1000 dilution). After incubation for 2 days, media was changed to maintenance media (growth media supplemented with insulin 10 μg/mL) plus serially diluted compounds prepared in DMSO (1:1000 dilution) for around 1 week with media changed every 2 days. Upon completion of the treatment, culture media are discarded and 200 μL 0.01% SDS was added to each well and shaken for 1 hour to lyse the cells. Cell lysates were then transferred to 400 μL Folch's solution (chloroform: methanol=2:1) and mixed well. After centrifuge at 2,000 rpm for 20 min, 200 μL of the lower organic phase was transferred to a plate with 10 μL sample buffer (chloroform:Triton-100=3:1). Samples were blown dried under nitrogen and 200 μL triglyceride (TG) quantification reagent (Thermo Fisher Scientific) was added, mixed, and incubated at 37° C. for 30 min. TG concentration was determined by reading absorbance at 535 nm (Dynex MRX^e Magellan Biosciences) and calculated from standard curve.

[8] = tested on: Human sebocytes; assay: Cellular levels of malonyl-CoA in human sebocytes; type: cell-based; details: 0.5 h, 30 min incubation, read-out: Malonyl-CoA in Sebo IC50
Method: as §2
Human sebocytes (Celprogen) were grown in growth media (DMEM with 4.5 g/L glucose, 0.584 g/L L-glutamine (Sigma), 100 units/mL of penicillin and 100 μg/mL of streptomycin (Gibco), 10% fetal bovine serum (Gibco)) at 37° C. in a humidified water jacketed incubator (Forma Scientific) supplemented with 5% CO2 till 100% confluency. Cells grown in 152 cm^2 cell culture dish (Corning) were trypsinized with 0.25% trypsin-EDTA (Gibco), centrifuged at 800 rpm for 10 min (Eppendorf) and resuspended in 4 mL growth media. To 1 μL serial diluted compounds in DMSO, 99 μL cells (around 0.5 million cells suspended in growth media) were added and mixed well followed by incubation in cell culture incubator for 30 min. Cells were then centrifuged at 800 rpm for 10 min and 70 μL 10% trichloroacetic acid was added to each well to lyse the cells and precipitate proteins. Cellular levels of malonyl-CoA were quantitated by LC-MS/MS.

[9] = tested on: Human sebocytes; assay: Lipogenesis of human sebocytes; type: cell-based; details: 96 hours, nile red, read-out: LG-Sebo IC50
Method: Human sebocytes (Celprogen) were grown in collagen-coated 96-well culture microplate (White/Clear bottom, Coming BioCoat) with growth media till 100% confluency. Culture media was changed to growth media plus 100 μM arachidonic acid (Sigma) and 10 μM rosiglitazone (Tocris) with compounds prepared in DMSO (1:1000 dilution in growth media). Cells were treated with compounds for 96 hours with media containing compounds changed after 48 hours. Upon completion of treatment, cells were washed with 200 μL Phosphate Buffered Saline (PBS) and then fixed by adding 100 μL 4% formaldehyde (Sigma) and incubated at room temperature for 1 hour. Cells were then washed 3 times with PBS. Microplate was stained with 100 μL nile red solution prepared in PBS (2 mg/mL, 1:400 dilution) by incubating at 37° C. for 1 hour and then washed 3 times with PBS. The fluorescence was read at Ex 492 nm and Em 595 nm (TECAN SpectrofluorPlus). Effect of compounds on lipogenesis in sebocytes was calculated by % of DMSO vehicle control.

[10] = tested on: Human sebocytes; assay: Proliferation of human sebocytes; type: cell-based; details: 24 hours, MTT, read-out: AP-Sebo IC50
Method: Human sebocytes (Celprogen) and keratinocytes (ATCC) were grown in 96-well culture microplate (Coming) with growth media to around 50% confluency. Media was changed to growth media mixed with serially diluted compounds in DMSO (1:1000 dilution). After treatment for 24 hours, media was changed to 100 μL phenol red free DMEM and cell numbers were quantitated by using Vybrant® MTT Cell Proliferation Assay Kit (Molecular Probes). Ten μL of 12 mM MTT stock solution was added to each well and the microplate was incubated at 37° C. for 4 hours. Then 100 μL of the SDS-HCl solution was added to each well and mixed thoroughly using a pipette. The microplate was incubated at 37° C. for 4 hours in a cell culture incubator. The microplate was mixed again using a pipette and absorbance was read at 570 nm (Dynex MRX^e Magellan Biosciences). Effect of compounds on proliferation of human keratinocytes was calculated by % of DMSO vehicle control.

T1 sequence (O00763 whole entry): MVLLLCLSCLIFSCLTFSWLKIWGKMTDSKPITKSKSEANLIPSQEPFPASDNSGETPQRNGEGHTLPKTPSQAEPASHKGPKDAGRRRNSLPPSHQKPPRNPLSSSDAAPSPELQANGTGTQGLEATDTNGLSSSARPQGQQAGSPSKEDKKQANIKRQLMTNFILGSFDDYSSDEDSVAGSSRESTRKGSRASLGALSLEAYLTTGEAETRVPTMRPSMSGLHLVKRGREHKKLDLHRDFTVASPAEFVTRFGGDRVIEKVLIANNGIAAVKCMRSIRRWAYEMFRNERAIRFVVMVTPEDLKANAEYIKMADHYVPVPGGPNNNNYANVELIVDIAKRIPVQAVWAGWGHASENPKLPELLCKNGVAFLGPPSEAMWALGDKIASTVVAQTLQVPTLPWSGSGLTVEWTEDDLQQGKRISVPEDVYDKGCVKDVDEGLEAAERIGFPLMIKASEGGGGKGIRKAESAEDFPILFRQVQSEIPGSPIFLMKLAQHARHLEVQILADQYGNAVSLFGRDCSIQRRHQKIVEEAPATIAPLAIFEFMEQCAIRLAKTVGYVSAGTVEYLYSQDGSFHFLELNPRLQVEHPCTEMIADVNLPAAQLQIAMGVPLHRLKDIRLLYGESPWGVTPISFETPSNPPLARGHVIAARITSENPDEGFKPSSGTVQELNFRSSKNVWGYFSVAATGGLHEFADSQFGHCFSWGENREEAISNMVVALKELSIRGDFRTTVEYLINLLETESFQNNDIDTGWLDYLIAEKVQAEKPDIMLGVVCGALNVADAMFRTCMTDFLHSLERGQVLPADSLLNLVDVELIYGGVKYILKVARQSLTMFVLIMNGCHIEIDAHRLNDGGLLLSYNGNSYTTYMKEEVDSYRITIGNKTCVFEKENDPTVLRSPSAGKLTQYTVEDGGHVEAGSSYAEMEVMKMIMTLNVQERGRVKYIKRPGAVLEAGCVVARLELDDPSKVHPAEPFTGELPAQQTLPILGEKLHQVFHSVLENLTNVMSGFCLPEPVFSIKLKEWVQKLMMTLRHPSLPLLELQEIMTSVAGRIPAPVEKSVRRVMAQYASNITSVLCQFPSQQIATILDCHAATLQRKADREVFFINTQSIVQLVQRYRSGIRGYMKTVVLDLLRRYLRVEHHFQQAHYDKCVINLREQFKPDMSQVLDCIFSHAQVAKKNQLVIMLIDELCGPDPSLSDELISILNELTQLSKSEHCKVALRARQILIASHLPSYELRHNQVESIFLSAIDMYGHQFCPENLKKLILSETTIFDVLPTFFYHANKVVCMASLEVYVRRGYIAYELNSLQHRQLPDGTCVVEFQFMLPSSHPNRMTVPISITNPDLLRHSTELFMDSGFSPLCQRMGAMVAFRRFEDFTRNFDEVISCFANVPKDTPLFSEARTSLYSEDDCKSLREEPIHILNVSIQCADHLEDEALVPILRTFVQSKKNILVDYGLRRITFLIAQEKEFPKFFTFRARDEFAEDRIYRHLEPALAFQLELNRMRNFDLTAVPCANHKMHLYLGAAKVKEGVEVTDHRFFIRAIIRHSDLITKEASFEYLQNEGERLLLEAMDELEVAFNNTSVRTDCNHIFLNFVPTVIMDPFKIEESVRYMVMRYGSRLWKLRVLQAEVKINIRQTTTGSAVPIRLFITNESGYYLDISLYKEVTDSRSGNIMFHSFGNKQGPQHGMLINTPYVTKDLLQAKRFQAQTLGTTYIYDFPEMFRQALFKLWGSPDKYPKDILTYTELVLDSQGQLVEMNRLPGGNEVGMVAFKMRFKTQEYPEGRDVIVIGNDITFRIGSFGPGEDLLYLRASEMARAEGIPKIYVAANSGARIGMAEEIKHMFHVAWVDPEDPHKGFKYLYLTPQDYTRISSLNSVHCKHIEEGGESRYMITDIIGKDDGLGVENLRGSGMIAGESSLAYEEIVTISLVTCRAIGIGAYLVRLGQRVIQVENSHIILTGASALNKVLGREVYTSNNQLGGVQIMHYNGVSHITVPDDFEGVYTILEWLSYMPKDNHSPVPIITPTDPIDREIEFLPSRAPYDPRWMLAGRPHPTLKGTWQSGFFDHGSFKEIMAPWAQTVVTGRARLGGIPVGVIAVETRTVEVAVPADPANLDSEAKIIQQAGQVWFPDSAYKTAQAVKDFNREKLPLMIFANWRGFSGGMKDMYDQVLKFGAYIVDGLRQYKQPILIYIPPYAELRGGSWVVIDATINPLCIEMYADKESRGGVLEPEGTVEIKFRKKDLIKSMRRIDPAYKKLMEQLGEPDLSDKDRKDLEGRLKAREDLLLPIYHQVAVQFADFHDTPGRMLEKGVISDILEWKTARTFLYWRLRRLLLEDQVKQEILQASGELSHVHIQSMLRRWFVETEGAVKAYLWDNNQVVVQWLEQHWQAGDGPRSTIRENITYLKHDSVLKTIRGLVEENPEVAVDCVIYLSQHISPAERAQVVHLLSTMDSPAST

COc1cc(C(=O)N2CCC3(CC2)Cc2ccc(-c4cncc(C(=O)O)c4)cc2C(=O)O3)nc2c(C3CC3)cccc12 [Example 20, 5-(1′-(8-cyclopropyl-4-methoxyquinoline-2-carbonyl)-1-oxospiro[isochroman-3,4′-piperidin]-7-yl)nicotinic acid]
Liver TG [1]: reduced liver triglycerides; also recorded: reduced liver TG | IC50 [2]: 0.152 µM | IC50 [3]: 0.148 µM

CCCCCCCCCCCCCCOc1ccc(C(=O)OCC(=O)N(C)CC(=O)OCC)o1 [olumacostat glasaretil]
Primary endpoints in phase III study [4]: did not meet its primary endpoints | Phase II data [5]: positive

COc1cc(C(=O)N2CCC3(CC2)Cc2ccc(C(C)C)cc2C(=O)O3)cc2c(OC)cccc12 [Example 1, 1′-(4,8-dimethoxy-2-naphthoyl)-7-isopropylspiro[isochroman-3,4′-piperidin]-1-one]
IC50 [6]: 0.0037 µM | IC50 [7]: 0.0013 µM | IC50 [8]: 0.0415 µM | IC50 [9]: 0.01 µM | IC50 [10]: 0.0933 µM

From patent publication US12102633B2, “Spirolactone compounds” (Quixgen, Inc., priority 2017, dated 2024)
